14 molecules from US20050288307A1, “Anti-viral compounds” (priority 2002, published 2005) can be followed below.

One data set has as its target CDK1/Cyclin B (Homo sapiens, UniProt P06493). The data set can be described thus: CDK1/cyclin B kinase assay (GST-Rb phosphorylation).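 Further: Enzyme: His-tagged CDK1/Cyclin B co-expressed in baculovirus-infected Sf9 insect cells, purified via metal-chelate chromatography.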
Another data set deals with CDK2/cyclin A (Homo sapiens, UniProt P24941). Put plainly: CDK2/cyclin A kinase assay.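 Further: Read-out is incorporated radioactivity retained on P81 filter plates and quantified by scintillation counting.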 In kind it is biochemical.
In the next data set the target is CDK7/cyclin H (Homo sapiens, UniProt P50613). The data set can be described thus: CDK7 assay (CTD peptide substrate). It counts as biochemical. How it is done:
CTD peptide substrate (biotinyl-Ahx-(Tyr-Ser-Pro-Thr-Ser-Pro-Ser)4-NH2; 1-2 mg/mL) and recombinant human CDK7/cyclin H, CDK9/cyclin T1, or CDK9/cyclin K (0.5-2 μg) were incubated for 45 min at 30° C. in the presence of varying amounts of test compound in 20 mM MOPS pH 7.2, 25 mM β-glycerophosphate, 5 mM EGTA, 1 mM DTT, 1 mM sodium vanadate, 15 mM MgCl2, and 100 μM ATP (containing a trace amount of ^32PγATP) in a total volume of 25 μL in a 96-well microtiter plate. The reaction was stopped by placing the plate on ice for 2 min. Avidin (50 μg) was added to each well, and the plate was incubated at room temp for 30 min. The samples were transferred to a 96-well P81 filter plate, and washed (4×200 μL per well) with 75 mM phosphoric acid. Microscint 40 scintillation liquid (50 μL) was added to each well, and the amount of ^32P incorporation for each sample was measured using a Packard Topcount microplate scintillation counter.

Another data set concerns the target CDK9/cyclin T1 (Homo sapiens, UniProt P50750). The data set can be described thus: CDK9 assay (CTD peptide substrate). In kind it is biochemical. The essentials: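 Recombinant human CDK7/cyclin H or CDK9/cyclin T1 with biotinylated CTD peptide, 45 min at 30 °C, pH 7.2 MOPS buffer, 15 mM MgCl2, 100 μM ATP with trace [γ-32P]ATP. Avidin capture on P81 filters, phosphoric acid washes, 32P incorporation by scintillation counting.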

For the next data set, the target named is T1, CDK2/Cyclin E (Homo sapiens, UniProt P24941).
T1 construct: His; made in house; host or cells: Sf9 insect cells (baculovirus)
The data set can be described thus: CDK2/cyclin E kinase assay (GST-Rb phosphorylation).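 Further: enzyme source: His-tagged CDK2/cyclin E complex co-expressed recombinantly in Sf9 insect cells using baculovirus constructs.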 It counts as biochemical.

The target in another data set is CDK4/Cyclin D1 (Homo sapiens, UniProt P11802). The data set can be described thus: CDK4/cyclin D1 kinase assay (GST-Rb phosphorylation). It counts as biochemical.
The next data set concerns HIV-1RoJo/PBMC. The data set can be described thus: Anti-HIV efficacy in fresh human PBMCs, strain RoJo. The settings on record: HIV-1RoJo/PBMC; for IC50: Human immunodeficiency virus 1, read-out: IC50 (concentration inhibiting virus replication by 50%); for IC90: Human immunodeficiency virus 1, read-out: IC90 (concentration inhibiting virus replication by 90%). It counts as cell-based. How it is done: Fresh PBMCs, seronegative for HIV and HBV, were isolated from screened donors (Interstate Blood Bank, Inc. Memphis, Tenn.). Cells were pelleted/washed 2-3 times by low speed centrifugation and re-suspension in PBS to remove contaminating platelets. […] Banded PBMCs were gently aspirated from the resulting interface and subsequently washed with PBS by low speed centrifugation. […] The cells were allowed to incubate at 37° C. […] IL-2 is included in the culture medium to maintain the cell division initiated by the PHA mitogenic stimulation. PBMCs were maintained in this with bi-weekly medium changes until used in the assay protocol. Cells were kept in culture for a maximum of two weeks before being deemed too old for use in assays and discarded. Monocytes were depleted from the culture as the result of adherence to the tissue culture flask.
Tritiated thymidine triphosphate (^3H-TTP, 80 Ci/mmol, NEN) was received in 1:1 dH2O:Ethanol at 1 mCi/mL. Poly rA:oligo dT template:primer (Pharmacia) was prepared as a stock solution, followed by aliquoting and storage at −20° C. The RT reaction buffer was prepared fresh on a daily basis. The final reaction mixture was prepared by combining ^3H-TTP, dH2O, poly rA:oligo dT stock and reaction buffer. This reaction mixture was placed in a round bottom microtiter plate and supernatant containing virus was added and mixed. The plate was incubated at 37° C. for 60 minutes. Following incubation, the reaction volume was spotted onto DE81 filter-mats (Wallac), in a sodium phosphate buffer or 2×SSC (Life Technologies). Next they were washed in distilled water, in 70% ethanol, and then dried. Incorporated radioactivity (counts per minute, CPM) was quantified using standard liquid scintillation techniques.

Data set [1] in a line: Compound cytotoxicity in PBMC assay plates (MTS cell viability). The settings on record: human, TC50 (concentration decreasing cell viability by 50%).
The next data set deals with HIV-1. The data set can be described thus: Anti-viral cell-based assays. The settings on record: result in words.
The mark [2] stands for this setting: Table 4, read-out: Kinase Inhibition IC50 CDK2-cyclin A.
The mark [3] stands for this setting: Table 4, read-out: Kinase Inhibition IC50 CDK7-cyclin H.
The mark [4] stands for this setting: Table 4, read-out: Kinase Inhibition IC50 CDK9-cyclin T1.
The mark [5] stands for this setting: Table 4, read-out: Kinase Inhibition IC50 CDK2-cyclin E.
[6] abbreviates: Table 4, read-out: Kinase Inhibition IC50 CDK4-cyclin D1.
[7] abbreviates: Table 3, read-out: Average IC50 CDK2 cyclin A2.
The mark [8] stands for this setting: Table 3, read-out: Average IC50 CDK7 cyclin H.
The mark [9] stands for this setting: Table 3, read-out: Average IC50 CDK9 cyclin T1.
Setting [10] is: Table 3, read-out: Average IC50 CDK2 cyclin E1.
Setting [11] is: Table 3, read-out: Average IC50 CDK4 cyclin D1.

Read-outs that look alike come from different tables or passages of the source.

Sequence of CDK1/Cyclin B (P06493 whole entry, species assumed): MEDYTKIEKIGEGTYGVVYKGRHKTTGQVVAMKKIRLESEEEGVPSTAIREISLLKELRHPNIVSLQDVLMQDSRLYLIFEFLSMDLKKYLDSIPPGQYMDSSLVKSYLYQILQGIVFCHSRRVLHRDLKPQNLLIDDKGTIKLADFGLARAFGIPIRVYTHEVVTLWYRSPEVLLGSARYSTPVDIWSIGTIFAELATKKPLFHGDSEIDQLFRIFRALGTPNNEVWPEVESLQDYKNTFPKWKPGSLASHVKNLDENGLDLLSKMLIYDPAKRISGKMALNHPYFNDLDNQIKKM
Sequence of CDK1/Cyclin B (P14635 whole entry partner, species assumed): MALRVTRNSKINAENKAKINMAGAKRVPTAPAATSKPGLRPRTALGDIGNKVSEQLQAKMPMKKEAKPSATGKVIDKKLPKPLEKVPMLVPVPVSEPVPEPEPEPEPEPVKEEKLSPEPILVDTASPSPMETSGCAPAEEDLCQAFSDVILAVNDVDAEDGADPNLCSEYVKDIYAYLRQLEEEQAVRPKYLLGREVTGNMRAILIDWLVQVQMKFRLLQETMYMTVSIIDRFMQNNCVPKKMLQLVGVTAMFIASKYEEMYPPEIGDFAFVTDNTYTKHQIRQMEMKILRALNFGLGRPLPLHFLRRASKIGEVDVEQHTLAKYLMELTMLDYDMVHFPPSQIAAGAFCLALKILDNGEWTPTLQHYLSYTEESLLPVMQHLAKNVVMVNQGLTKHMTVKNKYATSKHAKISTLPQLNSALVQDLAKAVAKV
Sequence of CDK9/cyclin T1 (P50750 whole entry): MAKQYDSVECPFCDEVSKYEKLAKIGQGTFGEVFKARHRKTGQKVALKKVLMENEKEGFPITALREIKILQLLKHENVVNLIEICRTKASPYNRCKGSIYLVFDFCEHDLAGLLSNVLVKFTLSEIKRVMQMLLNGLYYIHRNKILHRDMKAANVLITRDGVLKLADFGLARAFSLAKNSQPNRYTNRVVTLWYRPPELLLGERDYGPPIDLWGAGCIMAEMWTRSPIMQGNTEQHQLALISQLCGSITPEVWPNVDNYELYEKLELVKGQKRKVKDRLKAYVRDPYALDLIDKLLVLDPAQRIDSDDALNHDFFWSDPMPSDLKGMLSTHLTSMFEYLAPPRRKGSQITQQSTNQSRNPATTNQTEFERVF
Sequence of CDK9/cyclin T1 (O60563 whole entry partner): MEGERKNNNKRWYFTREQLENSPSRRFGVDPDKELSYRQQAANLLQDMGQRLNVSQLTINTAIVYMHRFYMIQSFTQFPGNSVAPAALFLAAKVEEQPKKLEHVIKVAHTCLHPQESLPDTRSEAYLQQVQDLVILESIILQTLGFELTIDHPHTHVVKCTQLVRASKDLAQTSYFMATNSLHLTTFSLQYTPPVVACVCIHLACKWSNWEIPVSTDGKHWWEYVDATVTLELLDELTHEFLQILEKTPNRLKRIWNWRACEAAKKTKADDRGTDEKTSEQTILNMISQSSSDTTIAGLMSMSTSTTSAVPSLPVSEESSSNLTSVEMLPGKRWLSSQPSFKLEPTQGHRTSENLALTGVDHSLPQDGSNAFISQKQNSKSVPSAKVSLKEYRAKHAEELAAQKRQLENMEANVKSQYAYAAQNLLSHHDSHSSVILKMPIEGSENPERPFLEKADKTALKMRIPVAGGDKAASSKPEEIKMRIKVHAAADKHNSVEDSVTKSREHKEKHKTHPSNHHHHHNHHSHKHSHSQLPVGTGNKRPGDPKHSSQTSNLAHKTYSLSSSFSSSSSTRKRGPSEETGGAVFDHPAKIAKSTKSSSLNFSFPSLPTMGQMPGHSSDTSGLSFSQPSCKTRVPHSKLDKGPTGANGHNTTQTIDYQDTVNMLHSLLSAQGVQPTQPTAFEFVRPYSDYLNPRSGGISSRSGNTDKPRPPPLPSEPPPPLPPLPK
Sequence of CDK4/Cyclin D1 (P11802 whole entry, species assumed): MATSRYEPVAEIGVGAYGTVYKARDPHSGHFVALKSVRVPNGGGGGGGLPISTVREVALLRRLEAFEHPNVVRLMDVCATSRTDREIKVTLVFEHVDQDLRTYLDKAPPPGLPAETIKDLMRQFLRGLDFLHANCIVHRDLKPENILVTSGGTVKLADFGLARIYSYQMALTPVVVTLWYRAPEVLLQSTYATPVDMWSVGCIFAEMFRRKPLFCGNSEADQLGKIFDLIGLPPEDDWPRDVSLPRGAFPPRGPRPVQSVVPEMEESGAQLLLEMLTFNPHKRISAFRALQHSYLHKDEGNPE
Sequence of CDK4/Cyclin D1 (P24385 whole entry partner, species assumed): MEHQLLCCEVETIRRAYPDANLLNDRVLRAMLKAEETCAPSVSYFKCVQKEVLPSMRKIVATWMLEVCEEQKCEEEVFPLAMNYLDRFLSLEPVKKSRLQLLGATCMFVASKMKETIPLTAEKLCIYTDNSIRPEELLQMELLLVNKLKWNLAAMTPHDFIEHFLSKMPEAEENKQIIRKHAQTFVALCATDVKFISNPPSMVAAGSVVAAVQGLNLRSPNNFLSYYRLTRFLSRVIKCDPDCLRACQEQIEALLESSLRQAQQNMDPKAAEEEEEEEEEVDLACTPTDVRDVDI
Sequence of CDK7/cyclin H (P50613 whole entry): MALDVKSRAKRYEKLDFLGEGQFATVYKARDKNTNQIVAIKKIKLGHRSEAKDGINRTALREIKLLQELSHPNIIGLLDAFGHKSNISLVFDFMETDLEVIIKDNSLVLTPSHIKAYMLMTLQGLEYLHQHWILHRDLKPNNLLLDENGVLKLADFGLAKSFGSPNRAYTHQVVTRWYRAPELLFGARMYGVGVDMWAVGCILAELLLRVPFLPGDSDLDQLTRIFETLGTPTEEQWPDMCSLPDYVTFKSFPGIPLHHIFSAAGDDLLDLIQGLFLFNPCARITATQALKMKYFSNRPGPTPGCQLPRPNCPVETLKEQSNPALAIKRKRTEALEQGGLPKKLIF
Sequence of CDK7/cyclin H (P51946 whole entry partner): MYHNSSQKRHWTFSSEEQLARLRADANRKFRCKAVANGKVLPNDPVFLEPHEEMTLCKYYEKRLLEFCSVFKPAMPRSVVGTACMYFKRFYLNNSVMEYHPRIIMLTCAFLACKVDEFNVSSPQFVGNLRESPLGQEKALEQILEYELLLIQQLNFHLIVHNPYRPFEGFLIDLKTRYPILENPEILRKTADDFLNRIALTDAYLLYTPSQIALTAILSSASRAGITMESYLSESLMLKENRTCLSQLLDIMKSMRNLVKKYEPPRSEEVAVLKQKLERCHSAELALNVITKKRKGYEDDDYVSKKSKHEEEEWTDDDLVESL
Method for CDK2/cyclin A: Reactions were stopped on ice, followed by filtration through p81 filterplates (Whatman Polyfiltronics, Kent, UK). After washing 3 times with 75 mM orthophosphoric acid, plates were dried, scintillant added and incorporated radioactivity measured in a scintillation counter (TopCount, Packard Instruments, Pangboume, Berks, UK).

Consider `Cc1c(-c2ccnc(Nc3cccc([N+](=O)[O-])c3)n2)sc(=O)n1C` [Compound 153, 3,4-Dimethyl-5-[2-(3-nitro-phenylamino)-pyrimidin-4-yl]-3H-thiazol-2-one], for which the IC50 was 3 µM against CDK1/Cyclin B; 0.016 µM at CDK2/cyclin A (setting [2]); 0.12 µM on CDK7/cyclin H (setting [3]); 0.0022 µM on CDK9/cyclin T1 (setting [4]); 0.61 µM on CDK2/Cyclin E (setting [5]); 0.56 µM on CDK4/Cyclin D1 (setting [6]).

With `CCNc1nc(C)c(-c2ccnc(Nc3cccc([N+](=O)[O-])c3)n2)s1` [Compound 133, [4-(2-Ethylamino-4-methyl-thiazol-5-yl)-pyrimidin-2-yl]-(3-nitro-phenyl)-amine], the IC50 at CDK1/Cyclin B is > 100 µM; on CDK2/cyclin A (setting [7]), 4.2 µM; on CDK7/cyclin H (setting [8]), 0.39 µM; at CDK9/cyclin T1 (setting [9]), 0.21 µM; at CDK2/Cyclin E (setting [10]) it was 0.088 µM; at CDK4/Cyclin D1 (setting [11]), 4.7 µM.

As for `Cc1nc(N(C)C)sc1-c1ccnc(Nc2cccc([N+](=O)[O-])c2)n1` [Compound 140, [4-(2-Dimethylamino-4-methyl-thiazol-5-yl)-pyrimidin-2-yl]-(3-nitro-phenyl)-amine], the IC50 was 49 µM against CDK1/Cyclin B; 1.8 µM at CDK2/cyclin A (setting [7]); > 100 µM on CDK7/cyclin H (setting [8]); 7.1 µM at CDK9/cyclin T1 (setting [9]); 0.48 µM at CDK2/Cyclin E (setting [10]); 105 µM at CDK4/Cyclin D1 (setting [11]).

As to `Cc1ccc(Nc2nccc(-c3sc(=O)n(C)c3C)n2)cc1[N+](=O)[O-]` [Compound 163, 3,4-Dimethyl-5-[2-(4-methyl-3-nitro-phenylamino)-pyrimidin-4-yl]-3H-thiazol-2-one], the IC50 came to 0.096 µM on CDK1/Cyclin B; 0.084 µM at CDK2/cyclin A (setting [2]); 0.0012 µM on CDK7/cyclin H (setting [3]); 0.014 µM at CDK9/cyclin T1 (setting [4]); 36 µM on CDK2/Cyclin E (setting [5]); 0.11 µM on CDK4/Cyclin D1 (setting [6]).

Turning to `Cc1nc(C)c(-c2ccnc(Nc3cccc(N)c3)n2)s1` [Compound 34, N-[4-(2,4-Dimethyl-thiazol-5-yl)-pyrimidin-2-yl]-benzene-1,3-diamine], the IC50 at CDK1/Cyclin B turned out to be 1.5 µM; on CDK2/cyclin A (setting [7]) it was 0.53 µM; at CDK7/cyclin H (setting [8]), 5.2 µM; at CDK9/cyclin T1 (setting [9]) it was 0.41 µM; on CDK2/Cyclin E (setting [10]), 0.53 µM; on CDK4/Cyclin D1 (setting [11]) it was 1.7 µM.

Consider `CNc1nc(C)c(-c2ccnc(Nc3cccc(C(F)(F)F)c3)n2)s1` [Compound 75, [4-(4-Methyl-2-methylamino-thiazol-5-yl)-pyrimidin-2-yl]-(3-trifluoromethyl-phenyl)-amine], for which the IC50 was > 100 µM against CDK1/Cyclin B; > 100 µM on CDK2/cyclin A (setting [7]); 19 µM at CDK7/cyclin H (setting [8]); 8.3 µM at CDK9/cyclin T1 (setting [9]); 0.77 µM at CDK2/Cyclin E (setting [10]); > 100 µM at CDK4/Cyclin D1 (setting [11]).

With `Cc1nc(N)sc1-c1ccnc(Nc2ccc(CCO)cc2)n1` [Compound 118, 2-{4-[4-(2-Amino-4-methyl-thiazol-5-yl)-pyrimidin-2-ylamino]-phenyl}-ethanol], the IC50 against CDK1/Cyclin B is 1.8 µM; at CDK2/cyclin A (setting [7]) it was 0.42 µM; on CDK7/cyclin H (setting [8]), 2.8 µM; on CDK9/cyclin T1 (setting [9]) it was 0.8 µM; on CDK2/Cyclin E (setting [10]), 0.39 µM; at CDK4/Cyclin D1 (setting [11]), 0.82 µM.

Take `CNc1nc(C)c(-c2ccnc(Nc3ccc(F)cc3)n2)s1` [Compound 47, (4-Fluoro-phenyl)-[4-(4-methyl-2-methylamino-thiazol-5-yl)-pyrimidin-2-yl]-amine]: in the data set on HIV-1RoJo/PBMC, the “TI (therapeutic index: TC50/IC50)” value is 34. Further, the IC50 in the data set on HIV-1RoJo/PBMC was 0.2 µM; at CDK9/cyclin T1 (setting [9]), 0.082 µM; at CDK2/Cyclin E (setting [10]), 0.037 µM. Moreover, in the data set with HIV-1RoJo/PBMC, the IC90 turned out to be 1.2 µM. In [1] (HIV-1RoJo/PBMC), this molecule yielded a CC50 at 7 days of 6.8 µM. For the same molecule, the “anti-viral effectiveness as demonstrated by cell-based assays” value (from here on “anti-viral effectiveness as demonstrated”) in the data set with HIV-1 was “particularly effective anti-viral agents”.

On to `Cc1nc(C)c(-c2ccnc(Nc3ccc(N(C)C)cc3)n2)s1` [Compound 103, N,N-Dimethyl-N′-[4-(2,4-dimethyl-thiazol-5-yl)-pyrimidin-2-yl]-benzene-1,4-diamine], for which the results for the IC50 on CDK1/Cyclin B, on CDK7/cyclin H (setting [8]) and at CDK9/cyclin T1 (setting [9]) were 7.3 µM, 11 µM and 1.8 µM, respectively. Besides, the CC50 at 7 days in [1] (HIV-1RoJo/PBMC) was > 100 µM; in [1] (HIV-1WeJo/PBMC), 0.8 µM. Further, the “anti-viral effectiveness as demonstrated” value in the data set with HIV-1 is on record as “particularly effective anti-viral agents”.

As for `Cc1nc(N)sc1-c1ccnc(Nc2cccc(N)c2)n1` [Compound 149, N-[4-(2-Amino-4-methyl-thiazol-5-yl)-pyrimidin-2-yl]-benzene-1,3-diamine], the IC50 at CDK1/Cyclin B was 0.71 µM; at CDK2/cyclin A (setting [7]), 0.52 µM; on CDK7/cyclin H (setting [8]) it was 0.99 µM; at CDK9/cyclin T1 (setting [9]), 0.059 µM; at CDK2/Cyclin E (setting [10]), 0.25 µM; on CDK4/Cyclin D1 (setting [11]), 0.5 µM.

Regarding `CNc1nc(C)c(-c2ccnc(Nc3cccc(O)c3)n2)s1` [Compound 70, 3-[4-(4-Methyl-2-methylamino-thiazol-5-yl)-pyrimidin-2-ylamino]-phenol], in the data set on HIV-1RoJo/PBMC, the “TI (therapeutic index: TC50/IC50)” value turned out to be 4.3. Further, the IC50 amounted to 0.63 µM in the data set with HIV-1RoJo/PBMC, 3.4 µM on CDK7/cyclin H (setting [8]), 0.048 µM on CDK9/cyclin T1 (setting [9]) and 0.27 µM on CDK2/Cyclin E (setting [10]). Also, the IC90 in the data set on HIV-1RoJo/PBMC amounted to 2.6 µM. In addition, the CC50 at 7 days in data set [1] (HIV-1RoJo/PBMC) came to 2.7 µM. In addition, the “anti-viral effectiveness as demonstrated” value in the data set on HIV-1 was “particularly effective anti-viral agents”.

On to `Cc1nc(C)c(-c2ccnc(Nc3ccc(S(=O)(=O)O)cc3)n2)s1` [Compound 148, 4-[4-(2,4-Dimethyl-thiazol-5-yl)-pyrimidin-2-ylamino]-benzenesulfonic acid], for which the IC50 was 0.048 µM against CDK1/Cyclin B; 0.001 µM at CDK2/cyclin A (setting [7]); 11 µM on CDK7/cyclin H (setting [8]); 0.028 µM on CDK2/Cyclin E (setting [10]); 3.8 µM at CDK4/Cyclin D1 (setting [11]).

On to `Cc1nc(C)c(-c2ccnc(Nc3cccc(C(F)(F)F)c3)n2)s1` [Compound 13, [4-(2,4-Dimethyl-thiazol-5-yl)-pyrimidin-2-yl]-(3-trifluoromethyl-phenyl)-amine], for which the IC50 on CDK1/Cyclin B was > 100 µM; at CDK2/cyclin A (setting [7]), > 100 µM; at CDK7/cyclin H (setting [8]), > 100 µM; on CDK9/cyclin T1 (setting [9]), 85 µM; on CDK2/Cyclin E (setting [10]), 22 µM; on CDK4/Cyclin D1 (setting [11]), > 100 µM.

Regarding `Cc1nc(C)c(-c2ccnc(Nc3ccccc3)n2)s1` [Compound 150, [4-(2,4-Dimethyl-thiazol-5-yl)-pyrimidin-2-yl]-phenyl-amine], the IC50 on CDK1/Cyclin B was 1.5 µM; at CDK2/cyclin A (setting [7]), 0.41 µM; at CDK7/cyclin H (setting [8]), 11 µM; on CDK2/Cyclin E (setting [10]) it was 0.16 µM; on CDK4/Cyclin D1 (setting [11]), 4.9 µM.

The term CC50 denotes the concentration giving 50% cytotoxicity. Lower therefore signals greater toxicity to the cells.
